Assay results: patent publication US11649222B2, “Compounds” (UNIVERSITETET I OSLO, priority 2016, dated 2023)
Several values for one entry are separate records, joined by “and”; a condition that tells them apart may be missing. Equal entries are not always repeated. Entries after “also recorded” stand apart in the source; their conditions may differ. Where two headings read alike, the source gives them in different places.

Experiments:
[1] = tested on: P. aeruginosa K34-7 (VIM-2); assay: Microbroth dilution MIC of carbapenem with/without inhibitor; format: cell-based; details: Example 26 25 mg/L
Protocol: (§1) • Plate bacterial strain(s) on appropriate media: • Gram-negative bacteria with ESBLs or carbapenemases: green agar plates with 100 mg/L ampicillin • Gram-negative bacteria without β-lactamases: green agar plates • Gram-positive bacteria (Staphylococci and Enterococci): blood agar plates • Incubate o.n. at 37° C. […] (Should be used within 15 min of preparation). • Dilute the 0.5 McFarland suspension 1:100 into MH broth. […] Plate 10 μl of the dilution on MH agar plates (×2). Incubate o.n. at 37° C., count the colonies and calculate the final CFU/ml inoculum in the plate by multiplying the average number of colonies with 10000 and divide by 2. The final inoculum should be between 3-7×10^5 CFU/ml. • Add 50 μl of the prepared bacterial suspension to each well in the microtiter plate except negative growth control. Preparation of Compounds/Antibiotics • Calculate the desired concentration-range and volume of the compounds/antibiotics in the assay. […] Dilute the stock solution in MH broth. Make subsequent 2-fold dilutions in MH broth of the desired concentrations if a concentration range is to be tested (remember the extra dilution factor in the assay plate). Always include extra volume for pipetting. Take into consideration stock solutions that are made in buffers that have an effect on bacterial growth (e.g. DMSO).

[2] = tested on: K. pneumoniae K66-45 (NDM-1); assay: as above; format: cell-based
Protocol: as §1

[3] = tested on: human hepG2 cells; assay: In vitro toxicity in human hepG2 cells (AlamarBlue viability); format: cell-based; details: for IC50: human hepG2 cells
Summary of the method: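 HepG2 cells at 20,000/well adhered overnight, then were exposed to compounds at 1 to 1×10^−6 mM (DMSO ≤1%) for 24 h at 37 °C. Viability was read with AlamarBlue (10% final) after a further 4 h at 37 °C.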

[4] = tested on: strains producing Klebsiella pneumoniae carbapenemases (KPC); assay: Adjuvant activity with a carbapenem against KPC-producing strains; format: cell-based
[5] = Solution stability on storage, measured indirectly by MIC; format: physicochemical; details: solution stored at 2-8° C.; MIC at 25 mg/L inhibitor
From the text: P. aeruginosa harboring VIM-2 and K. pneumonia bearing NDM-1 was used as two indicator strains.

[6] = tested on: K. pneumoniae K66-45; format: cell-based
Protocol: After plating and grown overnight at 37° C., only single colonies, ignoring any touching the edges of the plate, were counted.
10^9 CFU K66-45 (Mueller-Hinton broth, no selection) was plated and grown overnight, 37° C. Only single colonies, ignoring any touching the edges of the plate, were counted.

[7] = biological target: VIM-2 (Escherichia coli, UniProt Q5U7L7); format: biochemical
Protocol: The eluent used was Chelex-treated HEPES 50 mM buffer, pH 7.5. […] In all experiments, 16 aliquots of 250 μL were taken from the PD-10 column runsout and enzyme activity was analysed. Enzyme activity was measured by adding Nitrocefin as a reporter substrate (final concentration of 50 μM).
To investigate if more extreme time-dependent and concentration-dependent conditions could restore enzyme activity, aliquots having final concentrations of 30 nM column-treated enzyme and 1000 μM Zn^2+ on ice and at room temperature over prolonged time.

[8] = tested on: K. pneumoniae (NDM); assay: Microbroth dilution MIC of meropenem ± 25 mg/L inhibitor; format: cell-based; details: K. pneumoniae NDM (several strains)
Protocol: (§2) • Plate bacterial strain(s) on appropriate media: • Gram-negative bacteria with ESBLs or carbapenemases: green agar plates with 100 mg/L ampicillin • Gram-negative bacteria without β-lactamases: green agar plates • Gram-positive bacteria (Staphylococci and Enterococci): blood agar plates • Incubate o.n. at 37° C. Day 2: Prepare the Bacterial Inoculum: • Prepare a 0.5 McFarland suspension of bacteria in 0.85% NaCl. (Should be used within 15 min of preparation). • Dilute the 0.5 McFarland suspension 1:100 into MH broth. Check the inoculum by diluting the prepared bacterial suspension 1:100 (10 μl bacterial suspension+990 μl 0.85% NaCl). Plate 10 μl of the dilution on MH agar plates (×2). Incubate o.n. at 37° C., count the colonies and calculate the final CFU/ml inoculum in the plate by multiplying the average number of colonies with 10000 and divide by 2. The final inoculum should be between 3-7×10^5 CFU/ml. • Add 50 μl of the prepared bacterial suspension to each well in the microtiter plate except negative growth control. Preparation of Compounds/Antibiotics • Calculate the desired concentration-range and volume of the compounds/antibiotics in the assay. […] Dilute the stock solution in MH broth. Make subsequent 2-fold dilutions in MH broth of the desired concentrations if a concentration range is to be tested (remember the extra dilution factor in the assay plate). Always include extra volume for pipetting. Take into consideration stock solutions that are made in buffers that have an effect on bacterial growth (e.g. DMSO).

[9] = tested on: E. coli (NDM); assay: as above; format: cell-based; details: E. coli NDM (several strains)
Protocol: as §2

[10] = tested on: human serum albumin and α1-acid glycoprotein (AGP); details: 500 μM Example 26; HSA and AGP 24:1 up to 140 μM
Protocol: Enzymes in the kit are immobilized at a solid phase. […] Buffer without inhibitor was included as a control. After incubation, the suspensions were centrifuged and diluted 1:10 in 50 mM HEPES buffer pH 7.5 supplemented with 1 μM zinc^2+ and VIM-2 (final concentration 1 nM).

[11] = tested on: P. aeruginosa 50692172 (NDM-1); assay: Microbroth dilution MIC of meropenem with/without inhibitor; format: cell-based; details: inhibitor 25 mg/L
Protocol: as §1

[12] = tested on: P. aeruginosa 50808021 (No MBL); assay: as above; format: cell-based; details: inhibitor 25 mg/L
Protocol: as §1

[13] = tested on: E. coli K71-77 (NDM-1); assay: as above; format: cell-based
Protocol: as §2
(§3) This experimental design was used for the results in Tables 2-6 below.

[14] = tested on: E. coli 50639799 (VIM-1); assay: as above; format: cell-based
Protocol: as §2, §3

[15] = tested on: K. pneumoniae A3-81 (VIM-1); assay: as above; format: cell-based
Protocol: as §2, §3

CN(C[C@H](O)[C@@H](O)[C@H](O)[C@H](O)CO)C(=O)c1ccc(CN(Cc2ccccn2)Cc2ccccn2)nc1 [Example 26, 6-((bis(pyridin-2-ylmethyl)amino)methyl)-N-methyl-N-((2S,3R,4R,5R)-2,3,4,5,6-pentahydroxyhexyl)nicotinamide]
MIC of doripenem (DOR) + Example 26 [1]: 1 µg/mL
MIC of doripenem (DOR) + Example 26 ([2]; Example 26 25 mg/L, K. pneumoniae K66-45 NDM-1): 0.25 mg/L and 0.125 mg/L (2×)
MIC ([2]; Klebsiella pneumoniae, inhibitor 31.25 μM, 50 μM and 100 μM, K. pneumoniae K66-45, read-out: MIC of MEM in the presence of inhibitor): 0.125 µg/mL
MIC of meropenem ([2]; inhibitor 31.25 μM, K. pneumoniae K66-45 NDM-1): 0.125
MIC of meropenem ([2]; inhibitor 50 μM, K. pneumoniae K66-45 NDM-1): 0.125
EC50 in hepG2 cells ([3]; hepG2 cells): non-toxic
IC50 ([3]; 24 hours, AlamarBlue, 8 replicates, read-out: IC50): > 1000 µM
IC50 ([3]; read-out: IC50h): ≥ 116 µM
adjuvant activity with a carbapenem against KPC-producing strains [4]: does not show activity
storage time at which a loss of activity was observed [5]: > 8 months
Resistance/mutant frequency (number of colonies) ([6]; Example 26 15 mg/L, 8 mg/L MEM): n.c.
Resistance/mutant frequency (number of colonies) ([6]; Example 26 25 mg/L, 4 mg/L MEM): n.c.
Resistance/mutant frequency (number of colonies) ([6]; Example 26 25 mg/L, 8 mg/L MEM): n.c.
Resistance/mutant frequency (number of colonies) ([6]; Example 26 50 mg/L, 4 mg/L MEM): n.c.
Resistance/mutant frequency (number of colonies) ([6]; Example 26 50 mg/L, 8 mg/L MEM): n.c.
enzyme activity restored ([7]; 15 nM impaired enzyme spiked with ZnSO4 0-100 μM): 40%
residual enzyme activity ([7]; 50 nM VIM-2 + 140 mg/L Example 26, 1 hour on ice, PD-10 eluate fraction 5): 33%
irreversibility of VIM-2 inhibition ([7]; purified VIM-2, PD-10 column): irreversibly inhibits VIM-2; also recorded: irreversibly inhibited
MIC meropenem + 25 mg/L Example 26 [8]: 0.06 µg/mL
MIC meropenem + 25 mg/L Example 26 [9]: 0.125 µg/mL
effect of protein binding on inhibition of VIM-2 [10]: protein binding is not affecting the inhibitory activity
Meropenem activity in presence of inhibitor [11]: 4 mg/L
Meropenem activity in presence of inhibitor [12]: >64 mg/L

C[C@@H](O)[C@H]1C(=O)N2C(C(=O)O)=C(S[C@@H]3CN[C@H](C(=O)N(C)C)C3)[C@H](C)[C@H]12 [meropenem, reference compound]
Meropenem activity without inhibitor [13]: 1 to 8 mg/L
Meropenem activity without inhibitor [14]: 8 to 32 mg/L
Meropenem activity without inhibitor [15]: 64 to 256 mg/L
